In US8791108B2, “Inhibitors of human immunodeficiency virus replication” (priority 2011, dated 2014) one finds EC50 data, which are given here for 26 compounds.

The test system of this assay is recombinant NL-Rluc virus. Put plainly: Inhibition of HIV replication (NL-RLuc luciferase reporter virus, MT-2 cells). It is filed as cell-based. Conditions: Human immunodeficiency virus 1, MT2, 120 h. (In general: In a reporter assay the amount or activity of a reporter protein is the signal.)

Structures are written as SMILES. Where two headings read alike, the source gives them in different places.

As for `Cc1nc2cc(C(=O)NCc3ccc(F)cc3-n3cncn3)nn2c(-c2cc(F)c3c(c2C)CCCO3)c1[C@H](OC(C)(C)C)C(=O)O` [Example 11, (2S)-2-(tert-butoxy)-2-(2-((4-fluoro-2-(1H-1,2,4-triazol-1-yl)benzyl)carbamoyl)-7-(8-fluoro-5-methylchroman-6-yl)-5-methylpyrazolo[1,5-a]pyrimidin-6-yl)acetic acid], the EC50 (read-out: Activity) fell in the range of 0.1 to 1 µM.

Consider `Cc1nc2cc(C(=O)NCc3ccc(OC(F)(F)F)cc3)nn2c(-c2cc(F)c3c(c2C)CCCO3)c1[C@H](OC(C)(C)C)C(=O)O` [Example 44, (2S)-2-(tert-butoxy)-2-(7-(8-fluoro-5-methylchroman-6-yl)-5-methyl-2-((4-(trifluoromethoxy)benzyl)carbamoyl)pyrazolo[1,5-a]pyrimidin-6-yl)acetic acid], for which the EC50 (read-out: Activity) was less than 0.1 µM.

As to `Cc1nc2cc(C(=O)NCc3cccnc3)nn2c(-c2cc(F)c3c(c2C)CCCO3)c1[C@H](OC(C)(C)C)C(=O)O` [Example 61, (2S)-2-(tert-butoxy)-2-(7-(8-fluoro-5-methylchroman-6-yl)-5-methyl-2-((pyridin-3-ylmethyl)carbamoyl)pyrazolo[1,5-a]pyrimidin-6-yl)acetic acid], the EC50 (read-out: Activity) was greater than 1 µM.

Turning to `COc1ccc(CNC(=O)c2cc3nc(C)c([C@H](OC(C)(C)C)C(=O)O)c(-c4cc(F)c5c(c4C)CCCO5)n3n2)cc1` [Example 110, (2S)-2-(tert-butoxy)-2-(7-(8-fluoro-5-methylchroman-6-yl)-2-((4-methoxybenzyl)carbamoyl)-5-methylpyrazolo[1,5-a]pyrimidin-6-yl)acetic acid], the EC50 (read-out: Activity) is less than 0.1 µM.

For the compound `Cc1nc2cc(C(=O)N(C)CCC(C)C)nn2c(-c2cc(F)c3c(c2C)CCCO3)c1[C@H](OC(C)(C)C)C(=O)O` [Example 98, (2S)-2-(tert-butoxy)-2-(7-(8-fluoro-5-methylchroman-6-yl)-2-(isopentyl(methyl)carbamoyl)-5-methylpyrazolo[1,5-a]pyrimidin-6-yl)acetic acid], under “read-out: Activity”, the EC50 was less than 0.1 µM.

Take `Cc1nc2cc(C(=O)NCc3cccc(-n4cccc4)c3)nn2c(-c2cc(F)c3c(c2C)CCCO3)c1[C@H](OC(C)(C)C)C(=O)O` [Example 99, (2S)-2-(2-((3-(1H-pyrrol-1-yl)benzyl)carbamoyl)-7-(8-fluoro-5-methylchroman-6-yl)-5-methylpyrazolo[1,5-a]pyrimidin-6-yl)-2-(tert-butoxy)acetic acid]: the EC50 (read-out: Activity) is less than 0.1 µM.

On to `Cc1nc2cc(C(=O)NCCC34C[C@H]5C[C@@H](C3)C[C@@H](C4)C5)nn2c(-c2cc(F)c3c(c2C)CCCO3)c1[C@H](OC(C)(C)C)C(=O)O` [Example 130], for which, for the setting “read-out: Activity”, the EC50 is less than 0.1 µM.

As for `Cc1nc2cc(C(=O)NCC3CCN(C(=O)C(C)C)CC3)nn2c(-c2cc(F)c3c(c2C)CCCO3)c1[C@H](OC(C)(C)C)C(=O)O` [Example 2, (2S)-2-(tert-Butoxy)-2-(7-(8-fluoro-5-methylchroman-6-yl)-2-(((1-isobutyrylpiperidin-4-yl)methyl)carbamoyl)-5-methylpyrazolo[1,5-a]pyrimidin-6-yl)acetic acid], the EC50 (read-out: Activity) was greater than 1 µM.

Regarding `Cc1nc2cc(C(=O)NCc3nc4ccccc4s3)nn2c(-c2cc(F)c3c(c2C)CCCO3)c1[C@H](OC(C)(C)C)C(=O)O` [Example 122, (2S)-2-(2-((benzo[d]thiazol-2-ylmethyl)carbamoyl)-7-(8-fluoro-5-methylchroman-6-yl)-5-methylpyrazolo[1,5-a]pyrimidin-6-yl)-2-(tert-butoxy)acetic acid], the EC50 (read-out: Activity) was less than 0.1 µM.

For `Cc1nc2cc(C(=O)NCc3ccc(Cl)cc3Cl)nn2c(-c2cc(F)c3c(c2C)CCCO3)c1[C@H](OC(C)(C)C)C(=O)O` [Example 108, (2S)-2-(tert-butoxy)-2-(2-((2,4-dichlorobenzyl)carbamoyl)-7-(8-fluoro-5-methylchroman-6-yl)-5-methylpyrazolo[1,5-a]pyrimidin-6-yl)acetic acid], the EC50 was less than 0.1 µM (read-out: Activity) and 0.013 µM (read-out: EC50 μM).

Turning to `Cc1nc2cc(C(=O)NCC3CCCCC3)nn2c(-c2cc(F)c3c(c2C)CCCO3)c1[C@H](OC(C)(C)C)C(=O)O` [Example 16, (2S)-2-(tert-butoxy)-2-(2-((cyclohexylmethyl)carbamoyl)-7-(8-fluoro-5-methylchroman-6-yl)-5-methylpyrazolo[1,5-a]pyrimidin-6-yl)acetic acid], the EC50 (read-out: Activity) is less than 0.1 µM.

Regarding `Cc1nc2cc(C(=O)NCCc3ccc(Cl)cc3)nn2c(-c2cc(F)c3c(c2C)CCCO3)c1[C@H](OC(C)(C)C)C(=O)O` [Example 112, (2S)-2-(tert-butoxy)-2-(2-((4-chlorophenethyl)carbamoyl)-7-(8-fluoro-5-methylchroman-6-yl)-5-methylpyrazolo[1,5-a]pyrimidin-6-yl)acetic acid], the EC50 (read-out: Activity) was less than 0.1 µM.

Take `Cc1nc2cc(C(=O)N3CCc4ccccc4C3)nn2c(-c2cc(F)c3c(c2C)CCCO3)c1[C@H](OC(C)(C)C)C(=O)O` [Example 79, (2S)-2-(tert-butoxy)-2-(7-(8-fluoro-5-methylchroman-6-yl)-5-methyl-2-(1,2,3,4-tetrahydroisoquinoline-2-carbonyl)pyrazolo[1,5-a]pyrimidin-6-yl)acetic acid]: the EC50 (read-out: Activity) was less than 0.1 µM.

As to `Cc1nc2cc(C(=O)N(C)Cc3ccccc3)nn2c(-c2cc(F)c3c(c2C)CCCO3)c1[C@H](OC(C)(C)C)C(=O)O` [Example 33, (2S)-2-(2-(benzyl(methyl)carbamoyl)-7-(8-fluoro-5-methylchroman-6-yl)-5-methylpyrazolo[1,5-a]pyrimidin-6-yl)-2-(tert-butoxy)acetic acid], the EC50 (read-out: Activity) is less than 0.1 µM.

With `Cc1nc2cc(C(=O)NCC3CCN(C(=O)C4CC4)CC3)nn2c(-c2cc(F)c3c(c2C)CCCO3)c1[C@H](OC(C)(C)C)C(=O)O` [Example 58, (2S)-2-(tert-butoxy)-2-(2-(((1-(cyclopropanecarbonyl)piperidin-4-yl)methyl)carbamoyl)-7-(8-fluoro-5-methylchroman-6-yl)-5-methylpyrazolo[1,5-a]pyrimidin-6-yl)acetic acid], the EC50 (read-out: Activity) is greater than 1 µM.

Regarding `COc1cc(CNC(=O)c2cc3nc(C)c([C@H](OC(C)(C)C)C(=O)O)c(-c4cc(F)c5c(c4C)CCCO5)n3n2)ccc1F` [Example 35, (2S)-2-(tert-butoxy)-2-(2-((4-fluoro-3-methoxybenzyl)carbamoyl)-7-(8-fluoro-5-methylchroman-6-yl)-5-methylpyrazolo[1,5-a]pyrimidin-6-yl)acetic acid], where the note is “read-out: Activity”, the EC50 is less than 0.1 µM.

With `Cc1nc2cc(C(=O)NCc3ccc(F)cc3)nn2c(-c2cc(F)c3c(c2C)CCCO3)c1[C@H](OC(C)(C)C)C(=O)O` [Example 1, (2S)-2-(tert-butoxy)-2-(7-(8-fluoro-5-methylchroman-6-yl)-2-((4-fluorobenzyl)carbamoyl)-5-methylpyrazolo[1,5-a]pyrimidin-6-yl)acetic acid], the EC50 reads like this: (read-out: Activity) less than 0.1 µM; (read-out: EC50 μM) 0.053 µM.

As to `Cc1nc2cc(C(=O)N3CCN(Cc4ccccc4)CC3)nn2c(-c2cc(F)c3c(c2C)CCCO3)c1[C@H](OC(C)(C)C)C(=O)O` [Example 94, (2S)-2-(2-(4-benzylpiperazine-1-carbonyl)-7-(8-fluoro-5-methylchroman-6-yl)-5-methylpyrazolo[1,5-a]pyrimidin-6-yl)-2-(tert-butoxy)acetic acid], the EC50 (read-out: Activity) is 0.1 to 1 µM.

As to `Cc1nc2cc(C(=O)NC3CCN(Cc4ccccc4)C3)nn2c(-c2cc(F)c3c(c2C)CCCO3)c1[C@H](OC(C)(C)C)C(=O)O` (stereo partly drawn) [Example 82, (2S)-2-(2-((1-benzylpyrrolidin-3-yl)carbamoyl)-7-(8-fluoro-5-methylchroman-6-yl)-5-methylpyrazolo[1,5-a]pyrimidin-6-yl)-2-(tert-butoxy)acetic acid], the EC50 (read-out: Activity) is 0.1 to 1 µM.

Consider `Cc1ccccc1CNC(=O)c1cc2nc(C)c([C@H](OC(C)(C)C)C(=O)O)c(-c3cc(F)c4c(c3C)CCCO4)n2n1` [Example 7, (2S)-2-(tert-butoxy)-2-(7-(8-fluoro-5-methylchroman-6-yl)-5-methyl-2-((2-methylbenzyl)carbamoyl)pyrazolo[1,5-a]pyrimidin-6-yl)acetic acid], for which the EC50 (read-out: Activity) was less than 0.1 µM.

Turning to `Cc1nc2cc(C(=O)NCC34C[C@H]5C[C@@H](C3)C[C@@H](C4)C5)nn2c(-c2cc(F)c3c(c2C)CCCO3)c1[C@H](OC(C)(C)C)C(=O)O` [Example 126, (2S)-2-(2-(((3S,5S,7S)-adamantan-1-ylmethyl)carbamoyl)-7-(8-fluoro-5-methylchroman-6-yl)-5-methylpyrazolo[1,5-a]pyrimidin-6-yl)-2-(tert-butoxy)acetic acid], the EC50 (read-out: Activity) is less than 0.1 µM.

In the case of `Cc1nc2cc(C(=O)NCCCN3CCCC3=O)nn2c(-c2cc(F)c3c(c2C)CCCO3)c1[C@H](OC(C)(C)C)C(=O)O` [Example 76], where the note is “read-out: Activity”, the EC50 is greater than 1 µM.

For `Cc1nc2cc(C(=O)NCCCc3ccccc3)nn2c(-c2cc(F)c3c(c2C)CCCO3)c1[C@H](OC(C)(C)C)C(=O)O` [Example 50], where the note is “read-out: Activity”, the EC50 is less than 0.1 µM.

`Cc1nc2cc(C(=O)NS(=O)(=O)c3ccccc3)nn2c(-c2cc(F)c3c(c2C)CCCO3)c1[C@H](OC(C)(C)C)C(=O)O` [Example 13, (2S)-2-(tert-butoxy)-2-(7-(8-fluoro-5-methylchroman-6-yl)-5-methyl-2-((phenylsulfonyl)carbamoyl)pyrazolo[1,5-a]pyrimidin-6-yl)acetic acid]: the EC50 runs as follows: (read-out: Activity) greater than 1 µM; (read-out: EC50 μM) 40 µM.

Take `Cc1nc2cc(C(=O)N3CCC(c4ccccc4)CC3)nn2c(-c2cc(F)c3c(c2C)CCCO3)c1[C@H](OC(C)(C)C)C(=O)O` [Example 78, (2S)-2-(tert-butoxy)-2-(7-(8-fluoro-5-methylchroman-6-yl)-5-methyl-2-(4-phenylpiperidine-1-carbonyl)pyrazolo[1,5-a]pyrimidin-6-yl)acetic acid]: the EC50 (read-out: Activity) is less than 0.1 µM.

`Cc1nc2cc(C(=O)NCCSC(C)(C)C)nn2c(-c2cc(F)c3c(c2C)CCCO3)c1[C@H](OC(C)(C)C)C(=O)O` [Example 136, (2S)-2-(tert-butoxy)-2-(2-((2-(tert-butylthio)ethyl)carbamoyl)-7-(8-fluoro-5-methylchroman-6-yl)-5-methylpyrazolo[1,5-a]pyrimidin-6-yl)acetic acid]: the EC50 (read-out: Activity) was less than 0.1 µM.
